The record followed here is patent US20220153732A1, “PROTEIN SECRETION INHIBITORS” (KEZAR LIFE SCIENCES, priority 2019, published 2022).

Like-named read-outs stand apart in the source and are kept apart here.

Type in all cases: cell-based
The test system of experiment [1] is IL-2-FL/Gaussia Luciferase. Briefly: Dox Induced IL2-FL-Gluc Assay. The gist of the method: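 Compounds were added together with doxycycline in DMSO/media and incubated at 37° C., 5% CO2. The cells were a stably selected line carrying IL-2-FL/Gaussia luciferase under T-REx inducible control. Structures drawn without stereochemistry were tested as stereoisomer mixtures.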

Experiment [2] has as its system PD1-ss+10aa/Gaussia Luciferase. Briefly: Dox-Induced PD1-ss-Gluc Assay. The gist of the method: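 Compounds, diluted in DMSO/media with doxycycline, were added to cells plated a day earlier and kept at 37° C under 5% CO2. The cells stably express a Gaussia luciferase construct fused to PD1-ss+10aa, induced via the T-REx system. Unassigned stereochemistry means mixture data.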

For experiment [3], the system named is TNFα-FL/Gaussia Luciferase. The experiment in a line: Dox Induced TNFα-FL-Gluc Assay. Summed up: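 Compounds were added in doxycycline-containing DMSO/media to cells plated the previous day and incubated at 37° C under 5% CO2. These cells stably express a TNFα-FL/Gaussia luciferase cDNA whose expression is under T-REx (Dox-inducible) control, selected with Hygromycin and Blasticidin.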

The test system of experiment [4] is human multiple myeloma cell line U266B1. The experiment in a line: U266 Cell Viability Assay. Particulars: U-266, 48 hr, U266B1 cells, Celltiter-Glo, read-out: 48 hr U266 Viability Celltiter-Glo: Mean EC50. Summed up: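 Viability measured by CellTiter-Glo luciferase signal after 48 h compound exposure (37 °C, 5% CO2) of U266B1 cells in 384-well format. Where stereochemistry is not shown, data refer to the stereoisomer mixture.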

For experiment [5], the system named is human multiple myeloma cell line NCI-H929. The experiment in a line: H929 Cell Viability Assay. The following applies: 48 hr, NCI-H929 cells, Celltiter-Glo, read-out: 48 hr H929 Viability Celltiter-Glo: Mean EC50. The procedure:
Plates were incubated at 37° C., 5% CO2 for 48 hours. After 48 hours, Celltiter-Glo® (Promega) was added to each well and luciferase signal was quantified using Tecan Infinite M1000 Pro for cell viability determination.
For chemical structures that include one or more stereoisomers, but are illustrated without indicating stereochemistry, the assay data refers to a mixture of stereoisomers.

Experiment [6] has as its system HER3-ss+4aa/Gaussia Luciferase. Briefly: Dox-Induced Her3-ss-Gluc Assay. The gist of the method:
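Compounds, diluted in DMSO/media containing doxycycline, were incubated at 37° C., 5% CO2 with cells seeded one day earlier. The cells stably express HER3-ss+4aa/Gaussia luciferase under T-REx control. Where no stereochemistry is shown, data refer to the mixture of stereoisomers.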

Setting [7] is: 24 hr doxycycline induction, 293FRT/TO cells, Gaussia luciferase signal; read-out: 24 hr Dox Inducible IL2FLGIuc 293FRT/TO: Mean IC50.
Setting [8] is: 24 hr doxycycline induction, 293FRT/TO cells, Gaussia luciferase signal; read-out: 24 hr Dox Inducible PD1ssGluc 293FRT/TO: Mean IC50.
Setting [9] is: 24 hr doxycycline induction, 293FRT/TO cells, Gaussia luciferase signal; read-out: 24 hr Dox Inducible TNFaFLGluc 293FRT/TO: Mean IC50.
Where [10] appears, read: 24 hr doxycycline induction, 293FRT/TO cells, Gaussia luciferase signal; read-out: 24 hr Dox Inducible Her3(ss + 4)Gluc 293FRT/TO: Mean IC50.
Where [11] appears, read: 24 hr, doxycycline-induced, 293FRT/TO cells; read-out: 24 hr Dox Inducible IL2FLGIuc 293FRT/TO: Mean IC50.
Where [12] appears, read: 24 hr, doxycycline-induced, 293FRT/TO cells; read-out: 24 hr Dox Inducible PD1ssGluc 293FRT/TO: Mean IC50.
The mark [13] stands for this setting: 24 hr, doxycycline-induced, 293FRT/TO cells; read-out: 24 hr Dox Inducible TNFaFLGluc 293FRT/TO: Mean IC50.
Where [14] appears, read: 24 hr, doxycycline-induced, 293FRT/TO cells; read-out: 24 hr Dox Inducible Her3(ss + 4)Gluc 293FRT/TO: Mean IC50.

Regarding `O=C(Nc1nc([C@@H]2CCN(c3ccccc3)C2)cs1)c1cccn1Cc1ccncc1` [Compound A289], the IC50 in experiment [1] (setting [7]) was 856 nM; in experiment [2] (setting [8]), 201 nM; in experiment [3] (setting [9]) it was 3610 nM; in experiment [6] (setting [10]), 512 nM. The EC50 in experiment [4] is above 25000 nM; in experiment [5], 22000 nM.

For `CCN(C(=O)c1cccn1Cc1ccncc1)c1nccs1` [Compound B14], the IC50 in experiment [1] (setting [11]), in experiment [2] (setting [12]), in experiment [3] (setting [13]) and in experiment [6] (setting [14]) was above 25000 nM in each case. For the same molecule, the EC50 in experiment [4] and in experiment [5] was above 25000 nM throughout.

Consider `O=C(Nc1nc([C@H]2CCN(Cc3ccccc3)C2)cs1)c1cccn1Cc1ccncc1` [Compound A279], for which the IC50 in experiment [1] (setting [7]) is 4970 nM; in experiment [2] (setting [8]), 1140 nM; in experiment [3] (setting [9]), above 25000 nM; in experiment [6] (setting [10]) it was 4200 nM. Moreover, the EC50 in experiment [4] and in experiment [5] was above 25000 nM throughout.

Regarding `CC(C)O[C@@H]1CC(c2csc(NC(=O)c3cccn3Cc3ccncc3)n2)N(c2ccccc2)C1` (stereo partly drawn) [Compound A346], the IC50 in experiment [1] (setting [11]) is 20 nM; in experiment [2] (setting [12]), 17 nM; in experiment [3] (setting [13]) it was 92 nM; in experiment [6] (setting [14]), 22 nM. Moreover, the EC50 in experiment [4] was above 25000 nM; in experiment [5] it was 972 nM.

For `COc1ccc(/C=C/c2csc(NC(=O)c3cccn3Cc3ccncc3)n2)c(F)c1` [Compound A241, N-(4-(2-fluoro-4-methoxystyryl)thiazol-2-yl)-1-(pyridin-4-ylmethyl)-1H-pyrrole-2-carboxamide], the IC50 stood at 324 nM in experiment [1] (setting [7]), 27 nM in experiment [2] (setting [8]), 1320 nM in experiment [3] (setting [9]) and 179 nM in experiment [6] (setting [10]). Besides, the EC50 in experiment [4] was above 25000 nM; in experiment [5] it was 8370 nM.

Regarding `Cc1sc(NC(=O)c2cccn2Cc2ccncc2)nc1/C=C/c1ccccc1` [Compound A297], the IC50 in experiment [1] (setting [11]) came to 687 nM; in experiment [2] (setting [12]), 66 nM; in experiment [3] (setting [13]), 2820 nM; in experiment [6] (setting [14]), 251 nM. Besides, the EC50 in experiment [4] and in experiment [5] was above 25000 nM throughout.

Turning to `CC(C)(CCc1ccccn1)c1csc(NC(=O)c2cccn2Cc2ccncc2)n1` [Compound A262], the IC50 is 3120 nM in experiment [1] (setting [7]), 1460 nM in experiment [2] (setting [8]), 24200 nM in experiment [3] (setting [9]) and 3140 nM in experiment [6] (setting [10]). For the same molecule, the EC50 in experiment [4] and in experiment [5] was above 25000 nM throughout.

For the molecule `O=C(Nc1nc(/C=C\c2ccccc2)cs1)c1cccn1Cc1ccncc1` [Compound A12, 1-(pyridin-4-ylmethyl)-N-(4-styrylthiazol-2-yl)-1H-pyrrole-2-carboxamide], the IC50 in experiment [1] (setting [7]) turned out to be 566 nM; in experiment [2] (setting [8]), 139 nM; in experiment [3] (setting [9]), 1760 nM; in experiment [6] (setting [10]), 338 nM. Also, the EC50 in experiment [4] is above 25000 nM; in experiment [5] it was 18600 nM.

For `CC(C)(C)[Si](O[C@H]1CCN(c2ccccc2)[C@@H]1c1csc(NC(=O)c2cccn2Cc2ccncc2)n1)(c1ccccc1)c1ccccc1` [Compound A353], the IC50 worked out at 11 nM in experiment [1] (read-out: 24 hr Dox Inducible IL2FLGIuc 293FRT/TO: Mean IC50; 24 hr, doxycycline-induced, 293FRT/TO cells); 5 nM in experiment [2] (read-out: 24 hr Dox Inducible PD1ssGluc 293FRT/TO: Mean IC50; 24 hr, doxycycline-induced, 293FRT/TO cells); 13 nM in experiment [3] (read-out: 24 hr Dox Inducible TNFaFLGluc 293FRT/TO: Mean IC50; 24 hr, doxycycline-induced, 293FRT/TO cells); 12 nM in experiment [6] (read-out: 24 hr Dox Inducible Her3(ss + 4)Gluc 293FRT/TO: Mean IC50; 24 hr, doxycycline-induced, 293FRT/TO cells). In addition, the EC50 in experiment [4] was above 25000 nM; in experiment [5], 303 nM.

As to `CC(C)OC(C)(C)c1csc(NC(=O)c2cccc(=O)n2Cc2ccncc2)n1` [Compound A106, N-(4-(2-isopropoxypropan-2-yl)thiazol-2-yl)-6-oxo-1-(pyridin-4-ylmethyl)-1,6-dihydropyridine-2-carboxamide], the IC50 in experiment [1] (setting [7]), in experiment [2] (setting [8]), in experiment [3] (setting [9]) and in experiment [6] (setting [10]) was above 25000 nM throughout. Also, the EC50 in experiment [4] and in experiment [5] was above 25000 nM each time.

Take `O=C(Nc1nc([C@@H]2CCCN2Cc2ccccc2)cs1)c1cccn1Cc1ccncc1` [Compound A277]: the IC50 in experiment [1] (setting [7]) was 769 nM; in experiment [2] (setting [8]), 325 nM; in experiment [3] (setting [9]), 4060 nM; in experiment [6] (setting [10]), 819 nM. Moreover, the EC50 in experiment [4] is above 25000 nM; in experiment [5], 18700 nM.

Consider `CC(C)Oc1ccc(/C=C/c2csc(NC(=O)c3cccn3Cc3ccncc3)n2)cc1` [Compound A236, N-(4-(4-isopropoxystyryl)thiazol-2-yl)-1-(pyridin-4-ylmethyl)-1H-pyrrole-2-carboxamide], for which the IC50 in experiment [1] (setting [7]) turned out to be 1010 nM; in experiment [2] (setting [8]), 87 nM; in experiment [3] (setting [9]) it was 3240 nM; in experiment [6] (setting [10]), 535 nM. The EC50 was above 25000 nM in experiment [4] and 7700 nM in experiment [5].

Regarding `Cc1sc(NC(=O)c2cccn2Cc2ccncc2)nc1C1CC1` [Compound A47], the IC50 is 3110 nM in experiment [1] (setting [7]), 1090 nM in experiment [2] (setting [8]), 25000 nM in experiment [3] (setting [9]) and 2210 nM in experiment [6] (setting [10]). For the same molecule, the EC50 in experiment [4] and in experiment [5] was above 25000 nM each time.

Turning to `O=C(Nc1nc(/C=C/c2ccc3c(c2)OC(F)(F)O3)cs1)c1cccn1Cc1ccncc1` [Compound A235, N-(4-(2-(2,2-difluorobenzo[d][1,3]dioxo1-5-yl)vinyl)thiazol-2-yl)-1-(pyridin-4-ylmethyl)-1H-pyrrole-2-carboxamide], the IC50 was 237 nM in experiment [1] (setting [7]), 63 nM in experiment [2] (setting [8]), above 25000 nM in experiment [3] (setting [9]) and 145 nM in experiment [6] (setting [10]). Moreover, the EC50 in experiment [4] was above 25000 nM; in experiment [5] it was 4150 nM.

On to `CC(C)OC(C)(C)c1csc(NC(=O)c2cc(C(N)=O)cn2Cc2ccncc2)n1` [Compound A109, N2-(4-(2-isopropoxypropan-2-yl)thiazol-2-yl)-1-(pyridin-4-ylmethyl)-1H-pyrrole-2,4-dicarboxamide], for which the IC50 in experiment [1] (setting [7]), in experiment [2] (setting [8]), in experiment [3] (setting [9]) and in experiment [6] (setting [10]) was above 25000 nM throughout. The EC50 in experiment [4] is above 25000 nM; in experiment [5] it was 19500 nM.

`Cc1csc(NC(=O)c2cccn2Cc2ccncc2)n1` [Compound A63, N-(4-methylthiazol-2-yl)-1-(pyridin-4-ylmethyl)-1H-pyrrole-2-carboxamide]: the IC50 in experiment [1] (setting [7]) was above 25000 nM; in experiment [2] (setting [8]) it was 1720 nM; in experiment [3] (setting [9]), above 25000 nM; in experiment [6] (setting [10]) it was 10600 nM. Moreover, the concentration for a half-maximal effect (EC50) in experiment [4] and in experiment [5] was above 25000 nM each time.

In the case of `O=C(Nc1nc([C@@H]2COCCN2c2ccccc2)cs1)c1cccn1Cc1ccncc1` [Compound A337], the IC50 came to 379 nM in experiment [1] (setting [11]), 190 nM in experiment [2] (setting [12]), 2850 nM in experiment [3] (setting [13]) and 548 nM in experiment [6] (setting [14]). Further, the EC50 in experiment [4] is above 25000 nM; in experiment [5] it was 21500 nM.

Take `CC(C)OC(C)(C)c1csc(NC(=O)c2ccn(Cc3ccncc3)n2)n1` [Compound A100, N-(4-(2-isopropoxypropan-2-yl)thiazol-2-yl)-1-(pyridin-4-ylmethyl)-1H-pyrazole-3-carboxamide]: the IC50 in experiment [1] (setting [7]) is above 25000 nM; in experiment [2] (setting [8]) it was 24600 nM; in experiment [3] (setting [9]) it was above 25000 nM; in experiment [6] (setting [10]), above 25000 nM. The EC50 in experiment [4] was above 25000 nM; in experiment [5], 24600 nM.
